What was measured:
[1] = Protein binding in human plasma; type: ADME, cell-free; settings: read-out: PPB (converted)
[2] = target: Cytochrome P450 3A4 (Homo sapiens, UniProt P08684); test: Inhibition of CYP3A4 (unknown origin); type: ADME
[3] = Volume of distribution at steady state in Beagle dog at 1 mg/kg, po or 0.1 mg/kg, iv measured after 24 hrs by LC-MS/MS analysis; type: ADME, organism-based, Canis lupus familiaris; settings: in vivo
[4] = target: Cytochrome P450 2C9 (Homo sapiens, UniProt P11712); test: Inhibition of CYP2C9 (unknown origin); type: ADME
[5] = Dose normalized AUC in C57BL/6 mouse at 3 mg/kg, po measured after 24 hrs by LC-MS/MS analysis; type: ADME, organism-based; settings: in vivo
[6] = Drug concentration in blood of C57BL/6 mouse model of acute peritonitis at 3 mg/kg, po preadministered with compound for 1 hrs followed by LPS stimulation for 2 hrs and measured 15 mins after ATP addition by HPLC-MS/MS analysis; type: ADME, organism-based; settings: whole blood, read-out: Ct
[7] = In vivo inhibition of NLRP3 in LPS/ATP-induced C57BL/6 mouse model of acute peritonitis assessed as reduction in IL-1beta level at 50 mg/kg, po preadministered with compound for 1 hrs followed by LPS stimulation for 2 hrs and measured 15 mins after ATP addition by ELISA relative to control; type: functional; settings: time 3.25 hrs
[8] = Clearance in rat liver microsomes; type: ADME, Microsome; settings: read-out: CLH
[9] = Metabolic stability in human liver microsomes assessed as intrinsic clearance; type: ADME, Microsome; settings: read-out: CLH
[10] = Drug metabolism in human liver microsomes assessed as N-demethylation of piperidine ring mediated metabolite formation; type: ADME, Microsome
[11] = Oral bioavailability in C57BL/6 mouse at 3 mg/kg measured after 24 hrs by LC-MS/MS analysis; type: ADME, organism-based; settings: in vivo
[12] = Half-life in Sprague-Dawley rat at 10 mg/kg, po or 1 mg/kg, iv measured after 24 hrs by LC-MS/MS analysis; type: ADME, organism-based; settings: in vivo
[13] = Oral bioavailability in Beagle dog at 1 mg/kg measured after 24 hrs by LC-MS/MS analysis; type: ADME, organism-based, Canis lupus familiaris; settings: in vivo
[14] = Oral bioavailability in Sprague-Dawley rat at 10 mg/kg measured after 24 hrs by LC-MS/MS analysis; type: ADME, organism-based; settings: in vivo
[15] = Drug concentration in blood of C57BL/6 mouse model of acute peritonitis at 10 mg/kg, po preadministered with compound for 1 hrs followed by LPS stimulation for 2 hrs and measured 15 mins after ATP addition by HPLC-MS/MS analysis; type: ADME, organism-based; settings: whole blood, read-out: Ct
[16] = In vivo inhibition of NLRP3 in LPS/ATP-induced C57BL/6 mouse model of acute peritonitis assessed as reduction in IL-1beta level at 30 mg/kg, po preadministered with compound for 1 hrs followed by LPS stimulation for 2 hrs and measured 15 mins after ATP addition by ELISA relative to control; type: functional; settings: time 3.25 hrs
[17] = Clearance in mouse liver microsomes; type: ADME, Microsome; settings: read-out: CLH
[18] = AUC (0 to infinity) in C57BL/6 mouse at 3 mg/kg, po measured after 24 hrs by LC-MS/MS analysis; type: ADME, organism-based; settings: in vivo
[19] = target: Nuclear factor NF-kappa-B complex (Homo sapiens, UniProt P19838+Q00653+Q04206); test: Inhibition of NF-kappaB in PMA-differentiated human THP-1 cells assessed as reduction in TNF-alpha release preincubated with compound for 1 hrs followed by Pam3CSK4 stimulation and measured after 3 hrs by HTRF assay; type: cell-based
[20] = target: Cytochrome P450 2D6 (Homo sapiens, UniProt P10635); test: Inhibition of CYP2D6 (unknown origin); type: ADME
[21] = Clearance in C57BL/6 mouse assessed as hepatic blood flow at 3 mg/kg, po or 1 mg/kg, iv measured after 24 hrs by LC-MS/MS analysis; type: ADME, organism-based, Liver; settings: in vivo
[22] = Drug metabolism in dog liver microsomes assessed as N-demethylation of piperidine ring mediated metabolite formation; type: ADME, Canis lupus familiaris, Microsome
[23] = Clearance in Sprague-Dawley rat assessed as hepatic blood flow at 10 mg/kg, po or 1 mg/kg, iv measured after 24 hrs by LC-MS/MS analysis; type: ADME, organism-based, Liver; settings: in vivo
[24] = Volume of distribution at steady state in C57BL/6 mouse at 3 mg/kg, po or 1 mg/kg, iv measured after 24 hrs by LC-MS/MS analysis; type: ADME, organism-based; settings: in vivo
[25] = Drug metabolism in rat liver microsome assessed as thiophene oxidation mediated metabolite formation; type: ADME; settings: microsomes
[26] = target: Voltage-gated inwardly rectifying potassium channel KCNH2 (Homo sapiens, UniProt Q12809); test: Displacement of [3H]-dofetilide from human ERG; type: toxicity
[27] = Drug metabolism in human liver microsome assessed as thiophene oxidation mediated metabolite formation; type: ADME; settings: microsomes
[28] = Half-life in C57BL/6 mouse at 3 mg/kg, po or 1 mg/kg, iv measured after 24 hrs by LC-MS/MS analysis; type: ADME, organism-based; settings: in vivo
[29] = Half-life in Beagle dog at 1 mg/kg, po or 0.1 mg/kg, iv measured after 24 hrs by LC-MS/MS analysis; type: ADME, organism-based, Canis lupus familiaris; settings: in vivo
[30] = Metabolic stability in mouse liver microsomes assessed as intrinsic clearance; type: ADME, Microsome; settings: read-out: CLH
[31] = Dose normalized AUC in Beagle dog at 1 mg/kg, po measured after 24 hrs by LC-MS/MS analysis; type: ADME, organism-based, Canis lupus familiaris; settings: in vivo
[32] = Oral bioavailability in C57BL/6 mouse measured after 24 hrs by LC-MS/MS analysis; type: ADME, organism-based; settings: in vivo
[33] = Clearance in Beagle dog assessed as hepatic blood flow at 1 mg/kg, po or 0.1 mg/kg, iv measured after 24 hrs by LC-MS/MS analysis; type: ADME, organism-based, Canis lupus familiaris, Liver; settings: in vivo
[34] = Drug concentration in brain of C57BL/6 mouse model of acute peritonitis at 50 mg/kg, po preadministered with compound for 1 hrs followed by LPS stimulation for 2 hrs and measured 15 mins after ATP addition by HPLC-MS/MS analysis; type: ADME, organism-based; settings: read-out: Ct
[35] = Clearance in C57BL/6 mouse at 1 mg/kg, iv measured after 24 hrs by LC-MS/MS analysis; type: ADME, organism-based; settings: in vivo
[36] = In vivo inhibition of NLRP3 in LPS/ATP-induced C57BL/6 mouse model of acute peritonitis assessed as reduction in IL-1beta level at 3 mg/kg, po preadministered with compound for 1 hrs followed by LPS stimulation for 2 hrs and measured 15 mins after ATP addition by ELISA relative to control; type: functional; settings: time 3.25 hrs
[37] = Clearance in human liver microsomes; type: ADME, Microsome; settings: read-out: CLH
[38] = Drug metabolism in dog liver microsome assessed as thiophene oxidation mediated metabolite formation; type: ADME, Canis lupus familiaris; settings: microsomes
[39] = In vivo inhibition of NLRP3 in LPS/ATP-induced C57BL/6 mouse model of acute peritonitis assessed as reduction in IL-1beta level at 10 mg/kg, po preadministered with compound for 1 hrs followed by LPS stimulation for 2 hrs and measured 15 mins after ATP addition by ELISA relative to control; type: functional; settings: time 3.25 hrs
[40] = Lipophilicity, logD of compound at pH 7.4; type: physicochemical; settings: buffer
[41] = Drug metabolism in rat liver microsomes assessed as N-demethylation of piperidine ring mediated metabolite formation; type: ADME, Microsome

Sequence of Nuclear factor NF-kappa-B complex (P19838 1-433 limits assumed): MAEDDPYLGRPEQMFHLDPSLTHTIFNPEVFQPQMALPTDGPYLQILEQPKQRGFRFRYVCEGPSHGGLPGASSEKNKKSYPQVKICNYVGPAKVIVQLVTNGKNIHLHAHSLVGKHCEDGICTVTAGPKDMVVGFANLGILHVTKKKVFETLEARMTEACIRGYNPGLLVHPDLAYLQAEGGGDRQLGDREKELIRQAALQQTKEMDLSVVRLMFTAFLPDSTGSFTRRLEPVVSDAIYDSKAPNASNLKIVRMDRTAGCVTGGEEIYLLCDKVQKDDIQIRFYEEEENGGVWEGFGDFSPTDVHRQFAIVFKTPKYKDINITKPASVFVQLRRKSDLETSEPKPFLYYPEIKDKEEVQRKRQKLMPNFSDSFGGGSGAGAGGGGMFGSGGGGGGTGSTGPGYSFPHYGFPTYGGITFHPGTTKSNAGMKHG
Sequence of Nuclear factor NF-kappa-B complex (Q00653 1-454 limits assumed): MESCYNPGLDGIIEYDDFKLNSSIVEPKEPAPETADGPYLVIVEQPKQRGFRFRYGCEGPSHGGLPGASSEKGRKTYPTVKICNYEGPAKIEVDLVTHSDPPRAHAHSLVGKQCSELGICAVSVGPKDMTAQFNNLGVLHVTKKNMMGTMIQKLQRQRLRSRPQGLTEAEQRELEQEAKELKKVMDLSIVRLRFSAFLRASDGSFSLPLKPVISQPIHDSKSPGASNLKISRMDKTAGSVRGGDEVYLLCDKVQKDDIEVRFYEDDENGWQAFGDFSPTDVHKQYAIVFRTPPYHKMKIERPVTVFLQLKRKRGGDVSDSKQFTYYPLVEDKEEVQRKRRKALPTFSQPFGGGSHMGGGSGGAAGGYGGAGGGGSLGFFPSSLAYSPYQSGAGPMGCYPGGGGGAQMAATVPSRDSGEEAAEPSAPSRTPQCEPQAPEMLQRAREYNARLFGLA
Sequence of Nuclear factor NF-kappa-B complex (Q04206 whole entry): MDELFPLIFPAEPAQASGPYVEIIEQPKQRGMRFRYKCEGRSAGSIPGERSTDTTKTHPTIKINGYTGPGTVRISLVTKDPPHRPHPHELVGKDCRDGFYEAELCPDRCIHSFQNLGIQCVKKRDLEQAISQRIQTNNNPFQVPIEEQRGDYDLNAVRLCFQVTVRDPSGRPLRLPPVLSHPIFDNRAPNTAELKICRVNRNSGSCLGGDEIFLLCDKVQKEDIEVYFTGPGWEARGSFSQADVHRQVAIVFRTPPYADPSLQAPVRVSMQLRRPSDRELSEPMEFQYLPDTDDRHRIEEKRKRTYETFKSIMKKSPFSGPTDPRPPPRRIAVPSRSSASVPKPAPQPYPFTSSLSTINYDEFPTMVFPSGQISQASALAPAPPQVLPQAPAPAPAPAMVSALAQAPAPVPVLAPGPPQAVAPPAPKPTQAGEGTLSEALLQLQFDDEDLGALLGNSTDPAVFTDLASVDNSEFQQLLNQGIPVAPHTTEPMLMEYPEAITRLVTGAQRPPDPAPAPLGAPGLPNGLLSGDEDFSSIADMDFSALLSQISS
Sequence of Cytochrome P450 2C9 (P11712 whole entry): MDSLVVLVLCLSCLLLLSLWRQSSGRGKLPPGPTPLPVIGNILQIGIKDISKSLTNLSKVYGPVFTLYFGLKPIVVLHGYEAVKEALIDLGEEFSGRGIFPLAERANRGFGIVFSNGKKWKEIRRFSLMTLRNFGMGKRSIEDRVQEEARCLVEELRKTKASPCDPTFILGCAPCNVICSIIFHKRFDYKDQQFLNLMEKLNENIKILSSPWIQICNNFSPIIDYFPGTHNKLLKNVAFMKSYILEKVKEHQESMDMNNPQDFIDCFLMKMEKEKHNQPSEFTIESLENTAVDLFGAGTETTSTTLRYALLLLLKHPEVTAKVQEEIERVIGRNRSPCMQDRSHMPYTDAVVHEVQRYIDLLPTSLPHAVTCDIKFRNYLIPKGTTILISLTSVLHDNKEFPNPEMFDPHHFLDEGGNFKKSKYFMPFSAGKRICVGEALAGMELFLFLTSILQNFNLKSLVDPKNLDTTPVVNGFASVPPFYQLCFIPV
Sequence of Cytochrome P450 2D6 (P10635 whole entry): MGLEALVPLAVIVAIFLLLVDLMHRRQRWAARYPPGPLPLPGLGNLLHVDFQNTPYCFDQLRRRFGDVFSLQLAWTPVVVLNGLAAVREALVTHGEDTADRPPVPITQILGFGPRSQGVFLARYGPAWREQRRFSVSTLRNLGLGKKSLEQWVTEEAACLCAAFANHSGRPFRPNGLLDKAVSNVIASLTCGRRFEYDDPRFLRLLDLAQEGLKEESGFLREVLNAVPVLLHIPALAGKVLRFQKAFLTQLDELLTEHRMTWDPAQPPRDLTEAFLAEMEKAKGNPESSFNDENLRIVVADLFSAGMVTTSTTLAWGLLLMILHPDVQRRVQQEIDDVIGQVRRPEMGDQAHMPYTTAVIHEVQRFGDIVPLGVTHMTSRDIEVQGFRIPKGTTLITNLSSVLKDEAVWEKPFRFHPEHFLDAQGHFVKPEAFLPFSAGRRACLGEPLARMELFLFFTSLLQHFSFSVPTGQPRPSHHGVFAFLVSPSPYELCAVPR
Sequence of Cytochrome P450 3A4 (P08684 whole entry): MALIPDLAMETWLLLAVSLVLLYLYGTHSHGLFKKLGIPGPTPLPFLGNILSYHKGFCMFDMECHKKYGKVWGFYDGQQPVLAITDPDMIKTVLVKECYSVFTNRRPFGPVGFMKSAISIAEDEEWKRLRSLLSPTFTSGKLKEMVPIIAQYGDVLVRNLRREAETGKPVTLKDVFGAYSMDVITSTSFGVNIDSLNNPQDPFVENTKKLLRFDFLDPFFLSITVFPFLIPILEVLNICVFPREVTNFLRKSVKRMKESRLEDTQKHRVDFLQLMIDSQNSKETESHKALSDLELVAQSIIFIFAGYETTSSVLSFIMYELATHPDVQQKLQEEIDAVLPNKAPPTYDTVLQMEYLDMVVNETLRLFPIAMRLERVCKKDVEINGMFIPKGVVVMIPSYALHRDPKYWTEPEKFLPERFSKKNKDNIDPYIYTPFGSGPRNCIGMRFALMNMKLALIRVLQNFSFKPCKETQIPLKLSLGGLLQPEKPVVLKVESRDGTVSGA
Sequence of Voltage-gated inwardly rectifying potassium channel KCNH2 (Q12809 whole entry): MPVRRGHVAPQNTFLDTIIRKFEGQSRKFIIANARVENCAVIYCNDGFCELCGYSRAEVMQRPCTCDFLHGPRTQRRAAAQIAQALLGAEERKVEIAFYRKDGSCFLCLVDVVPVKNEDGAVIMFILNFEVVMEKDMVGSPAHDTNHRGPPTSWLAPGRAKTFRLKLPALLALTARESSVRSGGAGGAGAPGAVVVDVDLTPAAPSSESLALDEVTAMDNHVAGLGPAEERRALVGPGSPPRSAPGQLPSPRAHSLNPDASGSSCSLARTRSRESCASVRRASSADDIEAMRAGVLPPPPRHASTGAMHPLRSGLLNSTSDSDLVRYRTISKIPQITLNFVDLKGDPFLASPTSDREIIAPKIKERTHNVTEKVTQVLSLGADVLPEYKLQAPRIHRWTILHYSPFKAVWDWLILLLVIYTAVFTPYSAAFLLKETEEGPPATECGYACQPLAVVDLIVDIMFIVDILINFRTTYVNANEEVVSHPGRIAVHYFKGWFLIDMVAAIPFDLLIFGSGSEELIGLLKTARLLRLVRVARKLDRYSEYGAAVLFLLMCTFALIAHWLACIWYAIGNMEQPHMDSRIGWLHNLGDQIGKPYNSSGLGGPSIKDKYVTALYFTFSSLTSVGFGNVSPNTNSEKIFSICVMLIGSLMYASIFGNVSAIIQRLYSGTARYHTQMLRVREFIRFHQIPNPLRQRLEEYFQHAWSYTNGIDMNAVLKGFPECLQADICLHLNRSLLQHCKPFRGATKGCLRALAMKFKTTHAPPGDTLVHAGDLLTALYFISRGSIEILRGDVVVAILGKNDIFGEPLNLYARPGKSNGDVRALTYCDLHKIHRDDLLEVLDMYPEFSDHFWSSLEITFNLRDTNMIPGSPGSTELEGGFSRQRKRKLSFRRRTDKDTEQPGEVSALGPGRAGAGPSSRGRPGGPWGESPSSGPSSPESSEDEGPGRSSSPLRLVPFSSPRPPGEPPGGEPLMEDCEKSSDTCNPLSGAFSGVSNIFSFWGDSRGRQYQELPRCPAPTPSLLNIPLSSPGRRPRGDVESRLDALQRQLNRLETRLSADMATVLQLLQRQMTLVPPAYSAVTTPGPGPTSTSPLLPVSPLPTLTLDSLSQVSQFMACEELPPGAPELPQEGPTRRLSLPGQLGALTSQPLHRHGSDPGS

fraction unbound [1]: 0.15
IC50 [2]: > 25 µM
Vdss [3]: 4.1 L/kg
IC50 [4]: > 25 µM
AUC/dose [5]: 235 nmol·h/L
concentration at 3.25 h [6]: 70 nM
microsomal CLint [8]: 100 µL/min/mg
microsomal CLint [9]: 38 µL/min/mg
Drug metabolism [10]: Metabolite_Detected
bioavailability [11]: 36%
half-life [12]: 3.5 h
bioavailability [13]: 89%
bioavailability [14]: 63%
concentration at 3.25 h [15]: 163 nM
microsomal CLint [17]: 103 µL/min/mg
AUC(0-inf) [18]: 0.718 µM·h
IC50 [19]: > 100 µM
IC50 [20]: > 25 µM
LBF [21]: 40%
Drug metabolism [22]: Metabolite_Detected
LBF [23]: 40%
Vdss [24]: 3.9 L/kg
Drug metabolism [25]: Metabolite_Notdetected
Drug metabolism [27]: Metabolite_Notdetected
half-life [28]: 1 h
half-life [29]: 5.7 h
microsomal CLint [30]: 103 µL/min/mg
AUC/dose [31]: 2530 nmol·h/L
bioavailability [32]: 36%
LBF [33]: 40%
concentration at 3.25 h [34]: 398 nM
clearance [35]: 58 mL/min/kg
microsomal CLint [37]: 37 µL/min/mg
Drug metabolism [38]: Metabolite_Notdetected
logD [40]: 2.3
Drug metabolism [41]: Metabolite_Detected
Structure (SMILES): CN1CCC[C@@H](NC(=O)Cn2nc(C(C)(C)O)n3c(cc4sc(Cl)cc43)c2=O)C1
inhibition in vivo at 50 mg/kg [7]: 90%
inhibition in vivo at 30 mg/kg [16]: 91%
IC50 [26]: > 30 µM
inhibition in vivo at 3 mg/kg [36]: 34%
inhibition in vivo at 10 mg/kg [39]: 45%
